Results published in BigSolDB 2.1.

CCOC(=O)Cc1c(C(=O)OCC)sc(N(CC(=O)OCC)CC(=O)OCC)c1C#N
solubility (mole fraction)
Conditions	in acetone	in acetonitrile	in cyclohexane	in ethanol	in ethyl acetate	in isopropanol	in methanol	in n-butanol	in n-propanol	in toluene
283.15 K	0.0364	0.0196	5.19e-05	0.000512	0.0224	0.000243	0.0012	0.000391	0.000617	0.0122
285.65 K	0.0394	0.0211	6.04e-05	0.000635	0.0259	0.000308	0.00149	0.000489	0.000762	0.014
288.15 K	0.043	0.0234	7.21e-05	0.00079	0.0296	0.000386	0.0018	0.000608	0.000953	0.0162
290.65 K	0.0456	0.0255	8.6e-05	0.000971	0.0339	0.000478	0.0022	0.000753	0.00118	0.0187
293.15 K	0.0498	0.028	0.000102	0.0012	0.0389	0.000592	0.00265	0.00094	0.00146	0.0216
295.65 K	0.0538	0.0303	0.00012	0.00148	0.0442	0.000736	0.00326	0.00115	0.0018	0.0249
298.15 K	0.0582	0.0334	0.000142	0.00178	0.0509	0.00091	0.00391	0.0014	0.00219	0.0286
300.65 K	0.0627	0.0365	0.00017	0.00216	0.0578	0.00111	0.00464	0.00173	0.00266	0.0328
303.15 K	0.0672	0.0396	0.000199	0.00264	0.066	0.00135	0.00556	0.00215	0.00327	0.0379
305.65 K	0.073	0.0433	0.000236	0.0032	0.0741	0.00162	0.00659	0.00259	0.00403	0.0434
308.15 K	0.079	0.0473	0.000279	0.0038	0.083	0.00197	0.00781	0.00316	0.00492	0.0498
310.65 K	0.0853	0.0515	0.000324	0.00457	0.0927	0.00236	0.00925	0.0039	0.006	0.0567
313.15 K	0.0921	0.0562	0.00038	0.00543	0.105	0.00286	0.0109	0.0047	0.00722	0.0647
315.65 K	0.0995	0.0612	0.000444	0.00645	0.118	0.00345	0.0128	0.00577	0.00868	0.0737
318.15 K	0.107	0.067	0.000516	0.00768	0.132	0.00413	0.015	0.00696	0.0104	0.0835
320.65 K	0.116	0.0734	0.000596	0.00904	0.146	0.00494	0.0174	0.00838	0.0126	0.0946
323.15 K	0.126	0.0805	0.0007	0.0107	0.163	0.00588	0.0198	0.0102	0.015	0.107
